According to article PMC5650409 (Oncotarget, 2017):

Tests used:
[1] = test system: SK-BR-3 tumor-bearing mice; assay: Small-animal PET imaging of SK-BR-3 xenografts; format: in vivo
Protocol: (§1) All animal experiments were performed in adherence with the Peking Union Medical College Hospital (PUMCH) guidelines for the use of laboratory animals and were approved by PUMCH Clinical Center Animal Care and Use Committee. The pancreatic cancer tumor-bearing models were generated by subcutaneous injection of 5 × 10^6 human T3M4 pancreatic cancer cells (kindly supplied by Prof. Taiping Zhang from the Department of General Surgery, Peking Union Medical College Hospital) and SK-BR-3 breast cancer cells (kindly supplied by Prof. Wei Ge from Department of Immunology, Institute of Basic Medical Sciences), into the right shoulder of female athymic nude mice (Laboratory Animal Center of PUMCH). Tumor sizes were monitored with a vernier caliper. When the tumor reached approximately 3-5 mm in diameter, T3M4 tumor-bearing mice were intramuscularly injected with 0.2 mL turpentine into the left hind leg muscle. After 72 h, those tumor-bearing mice with a visible mass in left thigh muscle, were selected and used as models with aseptic inflammation.
(§2) In vivo PET imaging was performed using a small-animal PET scanner Inveon (Siemens Medical systems, USA). […] Mice were anesthetized with isoflurane and placed on a heated pad (to provide the animal with warmth throughout the scanning). PET images were acquired at 30, 60, 90 and 120 min post-injection. After the acquisition, region of interests (ROIs), including tumor, muscle, brain and kidney were drawn over major organs on decay-corrected whole-body coronal images using Inveon Research Workplace 4.1 software. Radioactivity concentration of organs was obtained from the mean pixel values within the multiple ROI volume, and converted into MBq/mL using a conversion factor. Assuming the density of tissue was 1 g/cm^3, the ROIs were converted to MBq/g and then divided by the administered activity, to obtain an imaging ROI-derived %ID/g.

[2] = Octanol-water partition coefficient determination; format: physicochemical; conditions: n-octanol / PBS pH 7.4
Protocol: After vortexing for 10 min, the tube was centrifuged (8000 rpm, 3 min) for layer separation. An aliquot of the aqueous and n-octanol layers was collected and measured by a γ-counter.

T3M4 tumor-bearing mice = assay: Small-animal PET imaging of T3M4 xenografts (with aseptic inflammation, with and without β-D-lactose blocking); format: in vivo; conditions: for tumor uptake (PET ROI-derived): T3M4 tumor, 60 min post-injection
Protocol: as §1, §2

[3] = Protocol: Urine and blood samples were collected at 15 min post-injection and blood was centrifuged (8000 rpm, 10 min) to separate out the plasma. Urine and plasma samples were analyzed by radio-TLC, as above.
[4] = In vitro stability in fetal bovine serum; format: in vitro ADME; conditions: 37 °C, 120 min
[5] = test system: T3M4 tumor-bearing nude mice; assay: In vivo biodistribution; conditions: n = 5
Protocol: All animal experiments were performed in adherence with the Peking Union Medical College Hospital (PUMCH) guidelines for the use of laboratory animals and were approved by PUMCH Clinical Center Animal Care and Use Committee. […] Zhang from the Department of General Surgery, Peking Union Medical College Hospital) and SK-BR-3 breast cancer cells (kindly supplied by Prof. Wei Ge from Department of Immunology, Institute of Basic Medical Sciences), into the right shoulder of female athymic nude mice (Laboratory Animal Center of PUMCH). Tumor sizes were monitored with a vernier caliper. […] After 72 h, those tumor-bearing mice with a visible mass in left thigh muscle, were selected and used as models with aseptic inflammation. […] At 5 min, 30 min, 60 min and 120 min after injection, mice were sacrificed by humane euthanasia - cervical dislocation. Blood was obtained through the eyeball, and tissues and organs of interests (brain, heart, lung, liver, pancreas, kidney, spleen, intestine, muscle, stomach, bone and tumor) were then weighed and counted. All measurements were background-subtracted and decay-corrected to the time of killing and then averaged. Radioactivity values were calculated and presented as the percentage injected dose per gram (%ID/g) of tissue.

[6] = SK-BR-3 xenografts, 60 min post-injection
[7] = 15 min after intravenous injection, radio-TLC

radioactivity uptake in SK-BR-3 tumor ([1]; SK-BR-3 breast tumor-bearing mice with no HIP/PAP expression, PET): low
uptake ratio of tumor-to-blood [1, 6]: 0.37 ± 0.01
uptake ratio of tumor-to-liver [1, 6]: 0.54 ± 0.01
uptake ratio of tumor-to-muscle [1, 6]: 1.37 ± 0.05
log P [2]: −2.62 ± 0.12
accumulation in inflammatory tissue (T3M4 tumor-bearing mice; T3M4-inflammation mice, 60 min after injection, PET): non-accumulation in inflammatory tissue
tumor uptake (PET ROI-derived) (T3M4 tumor-bearing mice; co-injection of β-D-lactose (15 mg/kg)): 2.36 ± 0.11 %ID/g
tumor uptake (PET ROI-derived) (T3M4 tumor-bearing mice; no blocking): 10.7 ± 1.01 %ID/g
percentage of intact probe in plasma [3, 7]: no less than 94%
percentage of intact probe in urine [3, 7]: no less than 94%
dehalogenation in vivo ([3]; plasma and urine 15 min after intravenous injection, supported by low bone uptake): Almost no dehalogenation was detected
intact ^18F-FEL in fetal bovine serum [4]: greater than 95%
Biodistribution, Blood ([5]; 5 min after injection): 9.58 ± 0.51 %ID/g
Biodistribution, Bone ([5]; 5 min after injection): 1.34 ± 0.23 %ID/g
Biodistribution, Brain ([5]; 5 min after injection): 0.67 ± 0.23 %ID/g
Biodistribution, Heart ([5]; 5 min after injection): 3.81 ± 0.62 %ID/g
Biodistribution, Intestine ([5]; 5 min after injection): 2.57 ± 0.30 %ID/g
Biodistribution, Kidney ([5]; 5 min after injection): 19.4 ± 4.76 %ID/g
Biodistribution, Liver ([5]; 5 min after injection): 2.12 ± 0.21 %ID/g
Biodistribution, Lung ([5]; 5 min after injection): 2.29 ± 0.35 %ID/g
Biodistribution, Muscle ([5]; 5 min after injection): 2.50 ± 0.15 %ID/g
Biodistribution, Pancreas ([5]; 5 min after injection): 2.90 ± 1.28 %ID/g
Biodistribution, Spleen ([5]; 5 min after injection): 1.89 ± 0.62 %ID/g
Biodistribution, Stomach ([5]; 5 min after injection): 3.60 ± 0.64 %ID/g
Biodistribution, Tumor ([5]; 5 min after injection): 6.67 ± 0.42 %ID/g
Biodistribution, Blood ([5]; 30 min after injection): 2.31 ± 0.67 %ID/g
Biodistribution, Bone ([5]; 30 min after injection): 0.60 ± 0.26 %ID/g
Biodistribution, Brain ([5]; 30 min after injection): 0.16 ± 0.04 %ID/g
Biodistribution, Heart ([5]; 30 min after injection): 0.88 ± 0.25 %ID/g
Biodistribution, Intestine ([5]; 30 min after injection): 0.94 ± 0.16 %ID/g
Biodistribution, Kidney ([5]; 30 min after injection): 9.59 ± 1.80 %ID/g
Biodistribution, Liver ([5]; 30 min after injection): 1.36 ± 0.07 %ID/g
Biodistribution, Lung ([5]; 30 min after injection): 1.91 ± 0.42 %ID/g
Biodistribution, Muscle ([5]; 30 min after injection): 0.91 ± 0.12 %ID/g
Biodistribution, Pancreas ([5]; 30 min after injection): 0.69 ± 0.33 %ID/g
Biodistribution, Spleen ([5]; 30 min after injection): 0.77 ± 0.19 %ID/g
Biodistribution, Stomach ([5]; 30 min after injection): 1.03 ± 0.33 %ID/g
Biodistribution, Tumor ([5]; 30 min after injection): 3.24 ± 0.11 %ID/g
Biodistribution, Blood ([5]; 60 min after injection): 0.87 ± 0.31 %ID/g
Biodistribution, Bone ([5]; 60 min after injection): 0.31 ± 0.02 %ID/g
Biodistribution, Brain ([5]; 60 min after injection): 0.10 ± 0.02 %ID/g
Biodistribution, Heart ([5]; 60 min after injection): 0.38 ± 0.10 %ID/g
Biodistribution, Intestine ([5]; 60 min after injection): 0.56 ± 0.35 %ID/g
Biodistribution, Kidney ([5]; 60 min after injection): 4.35 ± 1.53 %ID/g
Biodistribution, Liver ([5]; 60 min after injection): 0.83 ± 0.23 %ID/g
Biodistribution, Lung ([5]; 60 min after injection): 0.71 ± 0.37 %ID/g
Biodistribution, Muscle ([5]; 60 min after injection): 0.77 ± 0.30 %ID/g
Biodistribution, Pancreas ([5]; 60 min after injection): 0.63 ± 0.34 %ID/g
Biodistribution, Spleen ([5]; 60 min after injection): 0.56 ± 0.30 %ID/g
Biodistribution, Stomach ([5]; 60 min after injection): 0.82 ± 0.61 %ID/g
Biodistribution, Tumor ([5]; 60 min after injection): 1.03 ± 0.09 %ID/g
Biodistribution, Blood ([5]; 120 min after injection): 0.29 ± 0.12 %ID/g
Biodistribution, Bone ([5]; 120 min after injection): 0.12 ± 0.02 %ID/g
Biodistribution, Brain ([5]; 120 min after injection): 0.06 ± 0.03 %ID/g
Biodistribution, Heart ([5]; 120 min after injection): 0.20 ± 0.04 %ID/g
Biodistribution, Intestine ([5]; 120 min after injection): 0.20 ± 0.07 %ID/g
Biodistribution, Kidney ([5]; 120 min after injection): 2.08 ± 0.74 %ID/g
Biodistribution, Liver ([5]; 120 min after injection): 0.59 ± 0.09 %ID/g
Biodistribution, Lung ([5]; 120 min after injection): 0.38 ± 0.11 %ID/g
Biodistribution, Muscle ([5]; 120 min after injection): 0.15 ± 0.07 %ID/g
Biodistribution, Pancreas ([5]; 120 min after injection): 0.29 ± 0.07 %ID/g
Biodistribution, Spleen ([5]; 120 min after injection): 0.30 ± 0.17 %ID/g
Biodistribution, Stomach ([5]; 120 min after injection): 0.24 ± 0.17 %ID/g
Biodistribution, Tumor ([5]; 120 min after injection): 0.65 ± 0.12 %ID/g
Structure (SMILES): OC[C@H]1O[C@@H](O[C@H]2[C@H](O)[C@@H](O)[C@H](OCC[18F])O[C@@H]2CO)[C@H](O)[C@@H](O)[C@H]1O [^18F-FEL, 1'-^18F-fluoroethyl-β-D-lactose]
reduction of specific tumor accumulation in PET competition assay (T3M4 tumor-bearing mice; co-injection of β-D-lactose): approximately 80%
